This note sets out measurements from patent publication US10894797B2, “Fused tricyclic ring derivatives as SRC homology-2 phosphatase inhibitors” (Nikang Therapuetics, Inc., priority 2018, dated 2021).

pIC50: −log10 of the molar value.

The target of the assay is SHP2 (Homo sapiens (Human), UniProt Q06124). Put plainly: SHP2 allosteric inhibition assay (DiFMUP substrate, bisphos-IRS1 peptide activation). Type of assay: biochemical. The conditions noted are these: 0.33 nM SHP2, 0.5 μM bisphos-IRS1 peptide, 100 uM DiFMUP, room temperature. As for the experimental part: At the basal state, SHP2 is auto-inhibited and access of substrates to the catalytic site is blocked by the […] interactions between the SH2 domains and the PTP domain. When bis-tyrosyl-phosphorylated peptides bind to SH2 domain of SHP2, the PTP domain becomes available for substrate recognition and reaction catalysis and SHP2 is allosterically activated. SHP2 catalytic activity can be measured using a fluorogenic artificial substrate DiFMUP.
The phosphatase reactions were carried out at room temperature in 384-well black polystyrene plates (Greiner Bio-One, Cat #784076) using assay buffers containing 60 mM HEPES, pH 7.2, 75 mM NaCl, 75 mM KCl, 1 mM EDTA, 0.05% P-20, and 5 mM DTT.
0.33 nM of SHP2 was co-incubated with of 0.5 μM of bisphos-IRS 1 peptide (sequence: H2N-LN(pY)IDLDLV(dPEG8)LST(pY)ASINFQK-amide) and various concentrations of compounds for 30-60 min at room temperature. Then the reaction was initiated by addition of the surrogate substrate DiFMUP (Invitrogen, Cat #D6567, 100 uM final).
The real-time conversion of DiFMUP to DiFMU (6,8-difluoro-7-hydroxyl-4-methyl-coumarin) was measured every 5 min for 30 min using a microplate reader (CLARIOstar, BMG Labtech) with excitation and emission wavelengths of 340 nm and 450 nm, respectively. Initial reaction rates were determined by linear fitting of the data and the inhibitor dose response curves were analyzed using normalized IC50 regression curve fitting with control-based normalization.

Sequence of SHP2 (Q06124 whole entry, the tested form may be a part): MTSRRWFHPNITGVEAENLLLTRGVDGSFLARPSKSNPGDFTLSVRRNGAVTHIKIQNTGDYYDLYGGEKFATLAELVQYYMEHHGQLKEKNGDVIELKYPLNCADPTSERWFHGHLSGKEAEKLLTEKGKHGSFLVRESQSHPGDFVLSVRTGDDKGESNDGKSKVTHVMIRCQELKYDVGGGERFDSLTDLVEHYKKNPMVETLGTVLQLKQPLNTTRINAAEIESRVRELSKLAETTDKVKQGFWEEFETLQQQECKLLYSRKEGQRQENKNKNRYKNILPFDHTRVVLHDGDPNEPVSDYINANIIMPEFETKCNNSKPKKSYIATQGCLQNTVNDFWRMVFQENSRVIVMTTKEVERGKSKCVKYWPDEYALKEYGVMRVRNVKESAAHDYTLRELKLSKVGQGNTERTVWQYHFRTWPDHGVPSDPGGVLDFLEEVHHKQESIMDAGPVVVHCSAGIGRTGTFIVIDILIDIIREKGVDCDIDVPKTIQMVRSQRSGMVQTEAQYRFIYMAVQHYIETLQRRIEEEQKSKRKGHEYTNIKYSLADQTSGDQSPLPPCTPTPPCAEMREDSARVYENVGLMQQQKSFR

For `COCCO[C@H]1C[C@H]2COc3c(Sc4cnc(N5CCC6(CC5)CO[C@@H](C)[C@H]6N)c(CO)n4)ccnc3N2C1` [Compound 15, (3-((3S,4S)-4-amino-3-methyl-2-oxa-8-azaspiro[4.5]decan-8-yl)-6-(((6aS,8S)-8-(2-methoxyethoxy)-6a,7,8,9-tetrahydro-6H-pyrido[3,2-b]pyrrolo[1,2-d][1,4]oxazin-4-yl)thio)pyrazin-2-yl)methanol], the pIC50 was 8.00.
Consider `COC[C@H]1C[C@H]2COc3c(Sc4cnc(N5CCC6(CC5)Cc5ncccc5[C@H]6N)c(CO)n4)ccnc3N2C1` [Compound 36, (3-((S)-5-amino-5,7-dihydrospiro[cyclopenta[b]pyridine-6,4′-piperidin]-1′-yl)-6-(((6aS,8S)-8-(methoxymethyl)-6a,7,8,9-tetrahydro-6H-pyrido[3,2-b]pyrrolo[1,2-d][1,4]oxazin-4-yl)thio)pyrazin-2-yl)methanol], for which the “Shp2 IC50(nM)” value was “One of 36 and 37 is 2.7 and the other is 4.2”.
`C[C@@H]1OCC2(CCN(c3ncc(Sc4ccnc5c4OC[C@@H]4C[C@H](C#N)CN54)nc3CO)CC2)[C@@H]1N` [Compound 20, (6aS,8S)-4-((5-((3S,4S)-4-amino-3-methyl-2-oxa-8-azaspiro[4.5]decan-8-yl)-6-(hydroxymethyl)pyrazin-2-yl)thio)-6a,7,8,9-tetrahydro-6H-pyrido[3,2-b]pyrrolo[1,2-d][1,4]oxazine-8-carbonitrile] showed a pIC50 of 7.96.
Regarding `C[C@@H]1OCC2(CCN(c3ncc(Sc4ccnc5c4OC[C@@H]4C[C@](C)(O)CN54)nc3CO)CC2)[C@@H]1N` (single isomer, unassigned) [Compound 18], the “Shp2 IC50(nM)” value is “one of 21 and 22 is 13 and the other is 8”.
Same read-out and setting: in the case of `C[C@@H]1OCC2(CCN(c3ncc(Sc4ccnc5c4OC[C@@H]4C[C@@](C)(O)CN54)nc3CO)CC2)[C@@H]1N` (single isomer, unassigned) [Compound 19] it was “one of 21 and 22 is 13 and the other is 8”.
With `COCOC[C@H]1C[C@H]2COc3c(Sc4nc(CO)c(N5CCC6(CC5)CO[C@@H](C)[C@H]6N)nc4C)ccnc3N2C1` [Compound 49, (3-((3S,4S)-4-amino-3-methyl-2-oxa-8-azaspiro[4.5]decan-8-yl)-6-(((6aS,8S)-8-((methoxymethoxy)methyl)-6a,7,8,9-tetrahydro-6H-pyrido[3,2-b]pyrrolo[1,2-d][1,4]oxazin-4-yl)thio)-5-methylpyrazin-2-yl)methanol], the negative logarithm of the IC50 (pIC50) is 7.92.
Same read-out and setting: in the case of `COC[C@H]1C[C@H]2COc3c(Sc4cnc(N5CCC6(CC5)COC5(CCC5)[C@H]6N)c(CO)n4)ccnc3N2C1` [Compound 38, (3-((S)-5-amino-13-oxa-9-azadispiro[3.1.5^6.2^4]tridecan-9-yl)-6-(((6aS,8S)-8-(methoxymethyl)-6a,7,8,9-tetrahydro-6H-pyrido[3,2-b]pyrrolo[1,2-d][1,4]oxazin-4-yl)thio)pyrazin-2-yl)methanol] it was 8.24; in that of `COC[C@H]1C[C@H]2COc3c(Sc4cnc(N5CCC6(CC5)CO[C@@H](C)[C@H]6N)c(CO)n4)ccnc3N2C1` [Compound 29, (3-((3S,4S)-4-amino-3-methyl-2-oxa-8-azaspiro[4.5]decan-8-yl)-6-(((6aS,8S)-8-(methoxymethyl)-6a,7,8,9-tetrahydro-6H-pyrido[3,2-b]pyrrolo[1,2-d][1,4]oxazin-4-yl)thio)pyrazin-2-yl)methanol], 8.44; in that of `COCOC[C@H]1C[C@H]2COc3c(Sc4cnc(N5CCC6(CC5)COC5(CCC5)[C@H]6N)c(CO)n4)ccnc3N2C1` [Compound 39, (3-((S)-5-amino-13-oxa-9-azadispiro[3.1.5^6.2^4]tridecan-9-yl)-6-(((6aS,8S)-8-((methoxymethoxy)methyl)-6a,7,8,9-tetrahydro-6H-pyrido[3,2-b]pyrrolo[1,2-d][1,4]oxazin-4-yl)thio)pyrazin-2-yl)methanol], 8.15.
Still for that read-out and setting: the result for `C[C@@H]1OCC2(CCN(c3ncc(Sc4ccnc5c4OC[C@@H]4C[C@H](S(C)(=O)=O)CN54)nc3CO)CC2)[C@@H]1N` [Compound 21, (3-((3S,4S)-4-amino-3-methyl-2-oxa-8-azaspiro[4.5]decan-8-yl)-6-(((6aS,8S)-8-(methylsulfonyl)-6a,7,8,9-tetrahydro-6H-pyrido[3,2-b]pyrrolo[1,2-d][1,4]oxazin-4-yl)thio)pyrazin-2-yl)methanol] reads 7.89; that for `C[C@@H]1OCC2(CCN(c3ncc(Sc4ccnc5c4OC[C@@H]4C[C@H](COCC6COC6)CN54)nc3CO)CC2)[C@@H]1N` [Compound 34, (3-((3S,4S)-4-amino-3-methyl-2-oxa-8-azaspiro[4.5]decan-8-yl)-6-(((6aS,8S)-8-((oxetan-3-ylmethoxy)methyl)-6a,7,8,9-tetrahydro-6H-pyrido[3,2-b]pyrrolo[1,2-d][1,4]oxazin-4-yl)thio)pyrazin-2-yl)methanol], 8.21.
The same measure, in the same setting: the result for `C[C@@H]1OCC2(CCN(c3ncc(Sc4ccnc5c4OC[C@@H]4C[C@@H](O)CN54)nc3CO)CC2)[C@@H]1N` [Compound 8, (6aS,8R)-4-((5-((3 S,4S)-4-amino-3-methyl-2-oxa-8-azaspiro[4.5]decan-8-yl)-6-(hydroxymethyl)pyrazin-2-yl)thio)-6a,7,8,9-tetrahydro-6H-pyrido[3,2-b]pyrrolo[1,2-d][1,4]oxazin-8-ol] reads 8.10.
For `COCOC[C@H]1C[C@@H]2COc3c(Sc4cnc(N5CCC6(CC5)CO[C@@H](C)[C@H]6N)c(CO)n4)ccnc3N2C1` [Compound 51, (3-((3S,4S)-4-amino-3-methyl-2-oxa-8-azaspiro[4.5]decan-8-yl)-6-(((6aR,8S)-8-((methoxymethoxy)methyl)-6a,7,8,9-tetrahydro-6H-pyrido[3,2-b]pyrrolo[1,2-d][1,4]oxazin-4-yl)thio)pyrazin-2-yl)methanol], the pIC50 is 8.31.
`COCO[C@H]1C[C@H]2COc3c(Sc4cnc(N5CCC6(CC5)CO[C@@H](C)[C@H]6N)c(CO)n4)ccnc3N2C1` [Compound 14, (3-((3S,4S)-4-amino-3-methyl-2-oxa-8-azaspiro[4.5]decan-8-yl)-6-(((6aS,8S)-8-(methoxymethoxy)-6a,7,8,9-tetrahydro-6H-pyrido[3,2-b]pyrrolo[1,2-d][1,4]oxazin-4-yl)thio)pyrazin-2-yl)methanol] had a pIC50 of 8.30.
Same read-out and setting: the result for `COCOCOC[C@H]1C[C@H]2COc3c(Sc4cnc(N5CCC6(CC5)CO[C@@H](C)[C@H]6N)c(CO)n4)ccnc3N2C1` [Compound 40, (3-((3 S,4S)-4-Amino-3-methyl-2-oxa-8-azaspiro[4.5]decan-8-yl)-6-(((6aS,8S)-8-(((methoxymethoxy)methoxy)methyl)-6a,7,8,9-tetrahydro-6H-pyrido[3,2-b]pyrrolo[1,2-d][1,4]oxazin-4-yl)thio)pyrazin-2-yl)methanol] reads 8.23; that for `COCOC[C@H]1C[C@H]2COc3c(Sc4cnc(N5CCC6(CC5)Cc5ncccc5[C@H]6N)c(CO)n4)ccnc3N2C1` [Compound 48, (3-((S)-5-amino-5,7-dihydrospiro[cyclopenta[b]pyridine-6,4′-piperidin]-1′-yl)-6-(((6aS,8S)-8-((methoxymethoxy)methyl)-6a,7,8,9-tetrahydro-6H-pyrido[3,2-b]pyrrolo-[1,2-d][1,4]oxazin-4-yl)thio)pyrazin-2-yl)methanol], 8.48; that for `COC[C@H]1C[C@H]2COc3c(Sc4cnc(N5CCC6(CC5)CO[C@@H](C)[C@H]6N)cn4)ccnc3N2C1` [Compound 43, (3S,4S)-8-(5-(((6aS,8S)-8-(methoxymethyl)-6a,7,8,9-tetrahydro-6H-pyrido[3,2-b]pyrrolo[1,2-d][1,4]oxazin-4-yl)thio)pyrazin-2-yl)-3-methyl-2-oxa-8-azaspiro[4.5]decan-4-amine], 8.35.
As to `COC[C@H]1C[C@H]2COc3c(Sc4ncc(N5CCC6(CC5)CO[C@@H](C)[C@H]6N)nc4N)ccnc3N2C1` [Compound 45, (3S,4S)-8-(6-amino-5-(((6aS,8S)-8-(methoxymethyl)-6a,7,8,9-tetrahydro-6H-pyrido[3,2-b]pyrrolo[1,2-d][1,4]oxazin-4-yl)thio)pyrazin-2-yl)-3-methyl-2-oxa-8-azaspiro[4.5]decan-4-amine], the pIC50 is 8.03.
On the same count and under the same terms, the result for `C[C@@H]1OCC2(CCN(c3ncc(Sc4ccnc5c4OC[C@@H]4C[C@H](O)CN54)nc3CO)CC2)[C@@H]1N` [Compound 7, (6aS,8S)-4-((5-((3S,4S)-4-amino-3-methyl-2-oxa-8-azaspiro[4.5]decan-8-yl)-6-(hydroxymethyl)pyrazin-2-yl)thio)-6a,7,8,9-tetrahydro-6H-pyrido[3,2-b]pyrrolo[1,2-d][1,4]oxazin-8-ol] reads 8.22.
Still for that read-out and setting: in the case of `C[C@@H]1OCC2(CCN(c3ncc(Sc4ccnc5c4OC[C@@H]4C[C@H](OC6COC6)CN54)nc3CO)CC2)[C@@H]1N` [Compound 13, (3-((3S,4S)-4-amino-3-methyl-2-oxa-8-azaspiro[4.5]decan-8-yl)-6-(((6aS,8S)-8-(oxetan-3-yloxy)-6a,7,8,9-tetrahydro-6H-pyrido[3,2-b]pyrrolo[1,2-d][1,4]oxazin-4-yl)thio)pyrazin-2-yl)methanol] it was 8.10.

A word on the pIC50: it is the IC50 on a negative log10 scale, so that one unit is a factor of ten.
